{
  "source": "patent US20260060960A1",
  "about": "“GAMMA-SECRETASE INHIBITORS FOR USE IN THE TREATMENT OF INHERITED EPIDERMOLYSIS BULLOSA” (OSPEDALE PEDIATRICO BAMBINO GESU', priority 2022, published 2026)",
  "assay_type_in_all_cases": "cell-based, human",
  "key": {"[1]": {"test_system": "primary fibroblast strains from healthy controls (NH-FBs)", "test": "MTT viability/proliferation assay on primary fibroblasts from healthy controls", "description": "3-(4,5-dimethyl-2-thiazolyl)-2,5-diphenyl-2H-tetrazolium bromide (MTT) assay showing the impact of DAPT and PF-03084014 treatment on viability and proliferation rate of three primary fibroblast strains from healthy controls (NH-FBs). Absorbance values (Abs) were converted in percentage by using the following formula: AbsDAPT or PF-03084014×100/AbsREFERENCE WELLS. Data are presented as mean±standard deviation (SD) of at least eight technical replicates per condition. Cells treated with the vehicle DMSO (Panel A), and cells analyzed 24 h after seeding (T0) (Panel B) were considered as reference wells. NH-FBs were growth in DMEM medium containing 10% fetal bovine serum (FBS). […] Based on the results, it was chosen to use GSIs at 20 μM (black arrows) as it was the minimal drug concentration inducing a reduction of cell proliferation after 24 h of treatment. (Panel C) Immunoblotting analysis showing the protein levels of the cleaved and biologically active form of NOTCH1 receptor (N1-ICD, NOTCH1 intracellular domain) in nuclear extracts of primary fibroblasts from RDEB patients (RDEB-FBs, n=2) treated for 24 h with DAPT and PF-03084014 at different doses, ranging from 0.1 to 20 μM. Cells treated with the vehicle dimethyl sulfoxide (DMSO) were used as control. The reduced nuclear localization of N1-ICD indicates Notch pathway inhibition. […] Lamin B1 (LMNB1) and glyceraldehyde-3-phosphate dehydrogenase (GAPDH) served as loading controls for the nuclear and cytoplasmic protein fractions, respectively. **P-value <0.01, ***P<0.001.\nGSIs halt the processing of Notch receptor, and, in turn, play a role as indirect inhibitors of Notch signaling cascade. Following their reconstitution at 10 mM in dimethyl sulfoxide (DMSO), GSI aliquots were stored at −20° C. until use, avoiding freeze-thaw cycles. GSI treatment was performed in DMEM containing 10% FBS, unless otherwise specified. According to previous reports, RDEB-FBs were serum-starved overnight in DMEM containing BSA prior to be treated with GSIs. Cells treated with the vehicle DMSO were used as controls. GSIs were used at different concentrations ranging from 1 to 20 μM depending on the assay. […]\nProliferation rate was assessed by 3-(4,5-dimethyl-2-thiazolyl)-2,5-diphenyl-2H-tetrazolium bromide (MTT) assay, following the manufacturer's protocol. […] Thereafter, cells were lysed in DMSO to dissolve formazan crystals and absorbance values were recorded at 560 nm with an Infinite F50 microplate reader (Tecan, Mannedorf, Switzerland). Values recorded 24 h after cell seeding, before GSI stimulation (TO) were used as reference. […]"}, "[2]": {"test_system": "primary fibroblasts from RDEB patients (RDEB-FBs)", "test": "Oris cell migration assay", "settings": "24 h, vs non-treated cells", "experimental": "Migration rate was evaluated using an Oris™ Cell Migration Assay Kit (Platypus Technologies, Madison, WI, USA) following the manufacturer's instructions. Briefly, cells were seeded at high density (5×10^4 per well) onto 96-well plates containing medical-grade silicon stoppers that restrict cell seeding to an outer annular region of the well, and serum starved overnight. The day after, silicon stoppers were removed and cells were transfected. Analysis of cell migration into the detection zone was performed after Giemsa stain (Sigma-Aldrich). The detection zone was photographed with a Leica DMi8 microscope (Leica Microsystems, Wetzlar, Germany) at 0 h (premigration controls) and 24 h after stopper removal. ImageJ was used to calculate the percentage of cell-free area. The cell migration assay of RDEB-FBs and NH-FBs grown under basal conditions was performed following the same protocol."}, "[3]": {"test_system": "primary fibroblasts from RDEB patients (RDEB-FBs)", "test": "Collagen deposition analysis (Sircol assay)", "settings": "96 h", "experimental": "The amount of collagens deposited into the extracellular matrix (ECM) was measured by using the Sirius red staining-based Sircol assay (Biocolor, Carrickfergus, Northern Ireland-UK). Briefly, two RDEB-FB strains were seeded into 12-well plates (55.000 cells/well), and growth for two days until they reached about 80-90% confluence. Then, cells were treated for 96 h with PF-03084014 (5 μM), DAPT (20 μM) or the corresponding amount of vehicle DMSO in serum-free media. GSI stimulation was performed in the presence or in the absence of TGF-β1 (2 ng/mL) as inducer of collagen synthesis. In order to further improve collagen deposition, RDEB-FB cultures were daily supplemented with 50 μg/mL of L-ascorbic acid (Merck) and 100 μg/mL of dextran sulfate 500 kDa (Merck). ECM collagens were solubilized by scraping culture wells with a solution of 0.5 M acid acetic containing pepsin at 0.1 mg/mL (Pepsin […].4.23.1, product code: […], Merck) and incubated overnight at 4° C. in agitation. The day after, ECM lysates were neutralized with 100 μL of Acid Neutralizing Reagent (Biocolor), and concentrated by overnight incubation in ice-water mix, in the presence of 200 μL of Isolation & Concentration Reagent (Biocolor). Sample absorbance values were measured by BioTek Synergy H1 microplate reader (Agilent, Santa Clara, CA, USA) at 560 nm and analyzed through the GEN5TM software v. 3.04 (Agilent)."}, "[4]": {"test_system": "primary fibroblasts from RDEB patients (RDEB-FBs)", "test": "MTT proliferation assay on RDEB fibroblasts", "settings": "20 μM", "experimental": "Proliferation rate was assessed by 3-(4,5-dimethyl-2-thiazolyl)-2,5-diphenyl-2H-tetrazolium bromide (MTT) assay, following the manufacturer's protocol. In brief, three different strains of RDEB-FBs were seeded at the density of 4×10^3 cells into 96-well plates. The day after, RDEB-FBs growing in DMEM containing 10% FBS were treated with 20 μM DAPT or PF-03084014 for 24 h or 48 h. Cells treated with the vehicle DMSO were used as controls. At the selected time points, medium was replaced with MTT solution and plates were incubated in a dry incubator at 37° C. for 3 h. Thereafter, cells were lysed in DMSO to dissolve formazan crystals and absorbance values were recorded at 560 nm with an Infinite F50 microplate reader (Tecan, Mannedorf, Switzerland). Values recorded 24 h after cell seeding, before GSI stimulation (TO) were used as reference."}},
  "data": [
    {"smiles": "C[C@H](NC(=O)Cc1cc(F)cc(F)c1)C(=O)N[C@H](C(=O)OC(C)(C)C)c1ccccc1", "note": "[DAPT, N—[N-(3,5-difluorophenacetyl)-L-alanyl]-S-phenylglycine t-butyl ester]", "values": [
      {"measurement": "proliferation rate (MTT)", "setting": "[1]; 20 and 40 μM, 48 h, vs DMSO", "result": "slight but statistically significant reduction of proliferation rate"},
      {"measurement": "ability to migrate into the cell-free area", "setting": "[2]", "result": "significant decrease of RDEB-FB ability to migrate"},
      {"measurement": "collagen deposition into the ECM", "setting": "[3]; 20 μM, with or without TGF-β1", "result": "DAPT-mediated reduction of collagen deposition in each experimental condition, though the difference was moderate"},
      {"measurement": "cell proliferation (MTT)", "setting": "[4]; 24 and 48 h", "result": "didn't display variations in cell proliferation"}
    ]},
    {"smiles": "CCC[C@H](N[C@H]1CCc2cc(F)cc(F)c2C1)C(=O)Nc1cn(C(C)(C)CNCC(C)(C)C)cn1", "note": "[PF-03084014, (S)-2-((S)-5,7-difluoro-1,2,3,4-tetrahydronaphthalen-3-ylamino)-N-(1-(2-methyl-1-(neopentylamino)propan-2-yl)-1H-imidazol-4-yl)pentanamide]", "values": [
      {"measurement": "cell viability (MTT) compared to cells before GSI treatment (T0)", "setting": "[1]; 40 μM", "result": "reduction of cell viability"},
      {"measurement": "fibroblast proliferation / cytotoxicity (MTT)", "setting": "[1]; 5-20 μM", "result": "affected fibroblast proliferation in a time- and dose-dependent manner, in the absence of overt cytotoxicity"},
      {"measurement": "effects on proliferation rate (MTT)", "setting": "[1]; 20 and 40 μM at 24 h, 5 and 10 μM at 48 h, vs DMSO", "result": "observed after 24 h of treatment, and became more evident after 48 h of treatment, even at low doses (5 and 10 μM)"},
      {"measurement": "ability to migrate into the cell-free area", "setting": "[2]", "result": "significant decrease of RDEB-FB ability to migrate"},
      {"measurement": "reduction of pepsin-soluble collagens deposited into the ECM", "setting": "[3]; 5 μM, absence or presence of TGF-β1, vs untreated", "result": 50, "unit": "%"},
      {"measurement": "proliferation rate (MTT)", "setting": "[4]; 48 h, vs untreated cells", "result": "statistically significant reduction of RDEB-FB proliferation rate"}
    ]}
  ]
}
